# Measurements reported in patent US20200115314A1, “METHOD OF PRODUCING PLASTICIZER AND REDUCING ENERGY CONSUMPTION” (SABIC Global Technologies B.V., priority 2017, published 2020).
# Key:
# Format in all cases: physicochemical
# [1] = Solubility tests for trimellitic anhydride in 2-ethyl hexanol
# Description: Tri octyl trimellitate (TOTM) is one of the most commonly used non-phthalate based plasticizers. Tri octyl trimellitate is produced via esterification reaction between trimellitic anhydride (TMA) and 2-ethyl hexanol (2-EH). According to embodiments of the invention, trimellitic anhydride may be dissolved in 2-ethyl hexanol before it is transferred to an esterification reactor. Thus, the solubility of trimellitic anhydride in 2-ethyl hexanol was tested under various molar ratios of trimellitic anhydride to 2-ethyl hexanol. In this experiment, a hundred grams of trimellitic anhydride was initially added to 2-ethyl hexanol at a molar ratio of 1:1 to form a mixture. The temperature of the mixture was controlled in a range of 110° C. to 150 ° C. Additional 2-ethyl hexanol was gradually added to the mixture to change the molar ratio of trimellitic anhydride to 2-ethyl hexanol until complete dissolution of trimellitic anhydride in 2-ethyl hexanol was observed. The amount of added 2-ethyl hexanol was recorded to obtain a molar ratio needed for the complete dissolution of trimellitic anhydride.
# [2] = as above; remark: listed apart in the source
# [3] = Repeated solubility test for trimellitic anhydride in 2-ethyl hexanol
# Description: The temperature range for complete dissolution of trimellitic anhydride was further repeated by varying the temperature in a range of 110° C. to 149° C. when the molar ratio of trimellitic anhydride to 2-ethyl hexanol was kept at 1:3.25. About 100 g of trimellitic anhydride was used. When a complete dissolution of trimellitic anhydride was observed, the amount of water formed during the dissolution and total time consumed for dissolution are recorded.
smiles,measurement,setting,value
O=C(O)c1ccc2c(c1)C(=O)OC2=O [trimellitic anhydride],Dissolution,"[1]; TMA:2-EH molar ratio 1:1, 110-150 °C",No
same,Dissolution,"[1]; TMA:2-EH molar ratio 1:2, 110-150 °C",No
same,Dissolution,"[1]; TMA:2-EH molar ratio 1:2.5, 110-150 °C",No
same,Dissolution,"[1]; TMA:2-EH molar ratio 1:3, 110-150 °C",No
same,Dissolution,"[1]; TMA:2-EH molar ratio 1:3.25, 110-150 °C",Yes
same,Temperature at which water formation starts,"[2]; TMA:2-EH molar ratio 1:1, no catalyst",at 135 °C
same,Temperature at which water formation starts,"[2]; TMA:2-EH molar ratio 1:2, no catalyst",at 135 °C
same,Temperature at which water formation starts,"[2]; TMA:2-EH molar ratio 1:2.5, no catalyst",at 135 °C
same,Temperature at which water formation starts,"[2]; TMA:2-EH molar ratio 1:3, no catalyst",at 135 °C
same,Temperature at which water formation started,"[2]; at each molar ratio, without catalysts",135 °C
same,Time for complete dissolution,"[3]; about 149 °C, molar ratio about 1:3.25",20 to 30 min
same,Dissolution,"[3]; in 2-ethyl hexanol, TMA:2-EH molar ratio 1:3.25, 110-149 °C",Yes
same,Temperature at which the mixture becomes milky,"[3]; on cooling, molar ratio 1:3.25",60 °C
same,Temperature at which turbidity starts forming in the solution,"[3]; on cooling, molar ratio 1:3.25",65 °C
